According to ChEMBL document CHEMBL1201862, “PubChem BioAssay data set” (2004):
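48-hour exposure; five concentrations; linearly interpolated endpoints. At the GI50, growth is halved.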 Active and inactive are the calls of the source. Rule as the data show it: active = GI50 up to about 1.1 µM and inactive = higher.

Tests used:
Experiment in all cases: inhibition of tumour cell growth, NCI panel, 48 h
786-0 = system: 786-0
A498 = system: A498
A549 = system: A549
ACHN = system: ACHN
BT-549 = system: BT-549
CAKI-1 = system: CAKI-1
COLO 205 = system: COLO 205
DU-145 = system: DU-145
EKVX = system: EKVX
HCC 2998 = system: HCC 2998
HCT-116 = system: HCT-116
HCT-15 = system: HCT-15
HL-60 = system: HL-60
HOP-62 = system: HOP-62
HOP-92 = system: HOP-92
HT-29 = system: HT-29
Hs-578T = system: Hs-578T
IGROV-1 = system: IGROV-1
K562 = system: K562
KM12 = system: KM12
LOX IMVI = system: LOX IMVI
M14 = system: M14
MCF7 = system: MCF7
MDA-MB-231 = system: MDA-MB-231
MDA-MB-435 = system: MDA-MB-435
MDA-N = system: MDA-N
MOLT-4 = system: MOLT-4
NCI-H460 = system: NCI-H460
NCI/ADR-RES = system: NCI/ADR-RES
OVCAR-3 = system: OVCAR-3
OVCAR-4 = system: OVCAR-4
OVCAR-5 = system: OVCAR-5
OVCAR-8 = system: OVCAR-8
PC-3 = system: PC-3
RPMI-8226 = system: RPMI-8226
RXF 393 = system: RXF 393
SF-268 = system: SF-268
SF-295 = system: SF-295
SF-539 = system: SF-539
SK-MEL-28 = system: SK-MEL-28
SK-MEL-2 = system: SK-MEL-2
SK-MEL-5 = system: SK-MEL-5
SK-OV-3 = system: SK-OV-3
SN12C = system: SN12C
SNB-19 = system: SNB-19
SNB-75 = system: SNB-75
SR = system: SR
SW-620 = system: SW-620
T47D = system: T47D
TK-10 = system: TK-10
U-251 = system: U-251
UACC-257 = system: UACC-257
UACC-62 = system: UACC-62
UO-31 = system: UO-31
CCRF-CEM = system: CCRF-CEM
NCI-H226 = system: NCI-H226
NCI-H23 = system: NCI-H23
Malme-3M = system: Malme-3M
NCI-H522 = system: NCI-H522

Structure (SMILES): CN(C)c1ncc(-c2c[nH]c3ccccc23)nc1-c1c[nH]c2ccccc12
- GI50 (786-0): 2.12 µM (inactive)
- GI50 (A498): 2.14 µM (inactive)
- GI50 (A549): 3.33 µM (inactive)
- GI50 (ACHN): 2.67 µM (inactive)
- GI50 (BT-549): 13.8 µM (inactive)
- GI50 (CAKI-1): 3.47 µM (inactive)
- GI50 (COLO 205): 2.3 µM (inactive)
- GI50 (DU-145): 7.28 µM (inactive)
- GI50 (EKVX): 3.32 µM (inactive)
- GI50 (HCC 2998): 1.67 µM (inactive)
- GI50 (HCT-116): 3.13 µM (inactive)
- GI50 (HCT-15): 3.14 µM
- GI50 (HL-60): 2.02 µM (inactive)
- GI50 (HOP-62): 8.18 µM (inactive)
- GI50 (HOP-92): 3.2 µM (inactive)
- GI50 (HT-29): 2.19 µM (inactive)
- GI50 (Hs-578T): 2.78 µM (inactive)
- GI50 (IGROV-1): 3.24 µM (inactive)
- GI50 (K562): 2.8 µM (inactive)
- GI50 (KM12): 2.19 µM (inactive)
- GI50 (LOX IMVI): 2.51 µM (inactive)
- GI50 (M14): 1.89 µM (inactive)
- GI50 (MCF7): 2.3 µM (inactive)
- GI50 (MDA-MB-231): 2.07 µM (inactive)
- GI50 (MDA-MB-435): 3.31 µM (inactive)
- GI50 (MDA-N): 2.08 µM (inactive)
- GI50 (MOLT-4): 3.47 µM (inactive)
- GI50 (NCI-H460): 2.12 µM (inactive)
- GI50 (NCI/ADR-RES): 9.95 µM (inactive)
- GI50 (OVCAR-3): 5.75 µM (inactive)
- GI50 (OVCAR-4): 5.32 µM (inactive)
- GI50 (OVCAR-5): 4.68 µM (inactive)
- GI50 (OVCAR-8): 6.93 µM (inactive)
- GI50 (PC-3): 3.69 µM (inactive)
- GI50 (RPMI-8226): 2.74 µM (inactive)
- GI50 (RXF 393): 1.96 µM (inactive)
- GI50 (SF-268): 10.6 µM (inactive)
- GI50 (SF-295): 2.33 µM (inactive)
- GI50 (SF-539): 4.21 µM (inactive)
- GI50 (SK-MEL-28): 2.89 µM (inactive)
- GI50 (SK-MEL-2): 3.83 µM (inactive)
- GI50 (SK-MEL-5): 3.72 µM (inactive)
- GI50 (SK-OV-3): 7.66 µM (inactive)
- GI50 (SN12C): 2.88 µM (inactive)
- GI50 (SNB-19): 4.12 µM (inactive)
- GI50 (SNB-75): 1.15 µM (inactive)
- GI50 (SR): 3.24 µM (inactive)
- GI50 (SW-620): 3.38 µM (inactive)
- GI50 (T47D): 3.23 µM (inactive)
- GI50 (TK-10): 8.59 µM (inactive)
- GI50 (U-251): 3.37 µM (inactive)
- GI50 (UACC-257): 1.9 µM (inactive)
- GI50 (UACC-62): 1.99 µM (inactive)
- GI50 (UO-31): 3.73 µM (inactive)

Structure (SMILES): COC(OC)[C@@H]1OC[C@H](n2ccc(=O)[nH]c2=O)[C@H]1O
- GI50 (786-0): > 100 µM (inactive)
- GI50 (A498): > 100 µM (inactive)
- GI50 (A549): > 100 µM (inactive)
- GI50 (ACHN): > 100 µM (inactive)
- GI50 (BT-549): > 100 µM (inactive)
- GI50 (CAKI-1): > 100 µM (inactive)
- GI50 (CCRF-CEM): > 100 µM (inactive)
- GI50 (COLO 205): > 100 µM (inactive)
- GI50 (DU-145): > 100 µM (inactive)
- GI50 (EKVX): > 100 µM (inactive)
- GI50 (HCC 2998): > 100 µM (inactive)
- GI50 (HCT-116): > 100 µM (inactive)
- GI50 (HCT-15): > 100 µM
- GI50 (HOP-62): > 100 µM (inactive)
- GI50 (HOP-92): > 100 µM (inactive)
- GI50 (HT-29): > 100 µM (inactive)
- GI50 (Hs-578T): > 100 µM (inactive)
- GI50 (IGROV-1): > 100 µM (inactive)
- GI50 (K562): > 100 µM (inactive)
- GI50 (KM12): > 100 µM (inactive)
- GI50 (LOX IMVI): > 100 µM (inactive)
- GI50 (M14): > 100 µM (inactive)
- GI50 (MCF7): > 100 µM (inactive)
- GI50 (MDA-MB-231): > 100 µM (inactive)
- GI50 (MDA-MB-435): > 100 µM (inactive)
- GI50 (MDA-N): > 100 µM (inactive)
- GI50 (MOLT-4): > 100 µM (inactive)
- GI50 (NCI-H226): > 100 µM (inactive)
- GI50 (NCI-H23): > 100 µM (inactive)
- GI50 (NCI-H460): > 100 µM (inactive)
- GI50 (NCI/ADR-RES): > 100 µM (inactive)
- GI50 (OVCAR-3): > 100 µM (inactive)
- GI50 (OVCAR-4): > 100 µM (inactive)
- GI50 (OVCAR-5): > 100 µM (inactive)
- GI50 (PC-3): > 100 µM (inactive)
- GI50 (RPMI-8226): > 100 µM (inactive)
- GI50 (RXF 393): 66.4 µM (inactive)
- GI50 (SF-268): > 100 µM (inactive)
- GI50 (SF-295): > 100 µM (inactive)
- GI50 (SF-539): > 100 µM (inactive)
- GI50 (SK-MEL-28): > 100 µM (inactive)
- GI50 (SK-MEL-2): > 100 µM (inactive)
- GI50 (SK-MEL-5): > 100 µM (inactive)
- GI50 (SK-OV-3): > 100 µM (inactive)
- GI50 (SN12C): > 100 µM (inactive)
- GI50 (SNB-19): 67.3 µM (inactive)
- GI50 (SNB-75): > 100 µM (inactive)
- GI50 (SR): > 100 µM (inactive)
- GI50 (SW-620): > 100 µM (inactive)
- GI50 (T47D): > 100 µM (inactive)
- GI50 (TK-10): > 100 µM (inactive)
- GI50 (U-251): > 100 µM (inactive)
- GI50 (UACC-257): > 100 µM (inactive)
- GI50 (UACC-62): > 100 µM (inactive)
- GI50 (UO-31): > 100 µM (inactive)

Structure (SMILES): c1ccc2c(CC3NCCN3)cccc2c1
- GI50 (786-0): > 100 µM (inactive)
- GI50 (A498): > 100 µM (inactive)
- GI50 (A549): > 100 µM (inactive)
- GI50 (ACHN): > 100 µM (inactive)
- GI50 (BT-549): > 100 µM (inactive)
- GI50 (CAKI-1): > 100 µM (inactive)
- GI50 (CCRF-CEM): > 100 µM (inactive)
- GI50 (COLO 205): > 100 µM (inactive)
- GI50 (DU-145): > 100 µM (inactive)
- GI50 (EKVX): > 100 µM (inactive)
- GI50 (HCT-116): > 100 µM (inactive)
- GI50 (HCT-15): > 100 µM
- GI50 (HL-60): > 100 µM (inactive)
- GI50 (HOP-62): > 100 µM (inactive)
- GI50 (HOP-92): 46 µM (inactive)
- GI50 (HT-29): > 100 µM (inactive)
- GI50 (Hs-578T): > 100 µM (inactive)
- GI50 (IGROV-1): > 100 µM (inactive)
- GI50 (K562): > 100 µM (inactive)
- GI50 (KM12): > 100 µM (inactive)
- GI50 (LOX IMVI): > 100 µM (inactive)
- GI50 (M14): > 100 µM (inactive)
- GI50 (MCF7): > 100 µM (inactive)
- GI50 (MDA-MB-231): > 100 µM (inactive)
- GI50 (MDA-MB-435): > 100 µM (inactive)
- GI50 (MDA-N): > 100 µM (inactive)
- GI50 (MOLT-4): > 100 µM (inactive)
- GI50 (Malme-3M): > 100 µM (inactive)
- GI50 (NCI-H226): > 100 µM (inactive)
- GI50 (NCI-H23): > 100 µM (inactive)
- GI50 (NCI-H460): > 100 µM (inactive)
- GI50 (NCI-H522): > 100 µM (inactive)
- GI50 (NCI/ADR-RES): > 100 µM (inactive)
- GI50 (OVCAR-3): > 100 µM (inactive)
- GI50 (OVCAR-4): > 100 µM (inactive)
- GI50 (OVCAR-5): > 100 µM (inactive)
- GI50 (OVCAR-8): > 100 µM (inactive)
- GI50 (PC-3): > 100 µM (inactive)
- GI50 (RPMI-8226): > 100 µM (inactive)
- GI50 (RXF 393): > 100 µM (inactive)
- GI50 (SF-268): > 100 µM (inactive)
- GI50 (SF-295): > 100 µM (inactive)
- GI50 (SF-539): > 100 µM (inactive)
- GI50 (SK-MEL-28): > 100 µM (inactive)
- GI50 (SK-MEL-2): > 100 µM (inactive)
- GI50 (SK-MEL-5): > 100 µM (inactive)
- GI50 (SK-OV-3): > 100 µM (inactive)
- GI50 (SN12C): > 100 µM (inactive)
- GI50 (SNB-19): > 100 µM (inactive)
- GI50 (SNB-75): > 100 µM (inactive)
- GI50 (SR): > 100 µM (inactive)
- GI50 (SW-620): > 100 µM (inactive)
- GI50 (T47D): > 100 µM (inactive)
- GI50 (TK-10): > 100 µM (inactive)
- GI50 (U-251): > 100 µM (inactive)
- GI50 (UACC-257): > 100 µM (inactive)
- GI50 (UACC-62): > 100 µM (inactive)
